Reference: article PMC3174198, “Virtual High-Throughput Screening Identifies Mycophenolic Acid as a Novel RNA Capping Inhibitor” (PLoS ONE, 2011)

Key:
S. cerevisiae cells = assay: Primer extension analysis of SSA1 mRNA 5' ends (RNA cap formation in cells); type: cell-based; conditions: 500 µg/ml MPA for 3 h
[1] = molecular target: T1, Chlorella virus DNA ligase (Paramecium bursaria Chlorella virus 1, UniProt O41026); assay: First step of ligation: enzyme-AMP covalent complex formation; type: biochemical
Excerpt: (§1) An autoradiogram of the gel is shown.

[2] = molecular target: T2, GTase of S. cerevisiae (Ceg1 protein) (Saccharomyces cerevisiae, UniProt Q01159); assay: First step of GTase reaction: enzyme-GMP covalent complex formation; type: biochemical
T2 construct: made in house
T2 sequence (Q01159 1-459): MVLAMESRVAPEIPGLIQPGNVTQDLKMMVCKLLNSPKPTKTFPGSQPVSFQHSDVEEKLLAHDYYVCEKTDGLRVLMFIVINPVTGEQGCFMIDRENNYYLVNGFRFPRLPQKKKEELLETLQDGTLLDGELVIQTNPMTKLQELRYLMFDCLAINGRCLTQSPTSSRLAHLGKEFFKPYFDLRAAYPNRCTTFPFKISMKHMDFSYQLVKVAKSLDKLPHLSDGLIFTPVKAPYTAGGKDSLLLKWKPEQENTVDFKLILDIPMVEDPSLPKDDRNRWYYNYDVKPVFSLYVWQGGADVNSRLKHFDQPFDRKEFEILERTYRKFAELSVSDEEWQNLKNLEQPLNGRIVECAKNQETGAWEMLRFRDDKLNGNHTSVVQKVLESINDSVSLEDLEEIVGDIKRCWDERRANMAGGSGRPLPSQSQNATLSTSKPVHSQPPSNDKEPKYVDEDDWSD
Description: The assay was performed by incubating the enzyme (0.1 µM) with 10 µM [α-^32P]GTP in a buffer containing 50 mM Tris-HCl, pH 8, 5 mM DTT, and 5 mM MgCl2 for 5 min at 30°C. […] The reactions were analyzed by electrophoresis through a 12.5% polyacrylamide gel containing 0.1% SDS. The radiolabeled proteins were visualized by autoradiography of the gel.
(§2) Figure 2 Mycophenolic acid inhibits the RNA guanylyltransferase activity. (A) Molecular structure of mycophenolic acid (MPA). (B) Increasing concentrations of MPA inhibit the complete RNA guanylyltransferase reaction. […] The reaction products were analyzed on a denaturing polyacrylamide gel and quantified (right side of the panel). (C) MPA is not a potent inhibitor of the first step of the GTase reaction. […] (D) The second step of the GTase reaction is inhibited by MPA. […] Formation of the radiolabeled capped GpppRNA was monitored following electrophoresis on a denaturant polyacrylamide gel.

[3] = molecular target: T3, RNA guanylyltransferase from Chlorella virus (A103R) (Paramecium bursaria Chlorella virus 1, UniProt Q84424); assay: First and second step of the GTase reaction, Chlorella enzyme; type: biochemical
T3 construct: made in house

RNA guanylyltransferase = molecular target: T4, RNA guanylyltransferase (Saccharomyces cerevisiae, UniProt Q01159); assay: Substrate test: capillary electrophoresis of enzyme adduct and TLC of RNA capping products; type: biochemical, S. cerevisiae; conditions: 1 mM MPA
T4 construct: made in house
T4 sequence (Q01159 1-459): T2 sequence (Q01159 1-459)
Excerpt: In the typical GTase reaction, the nucleophilic attack on the α-phosphate of GTP by the enzyme during the first step of the reaction results in the formation of a covalent intermediate in which GMP is linked via a phosphoamide bond to a lysine residue of the enzyme. […] Although MPA is not a nucleoside analog per se, we were still interested to monitor its ability to potentially be used as a substrate by the enzyme. The appearance of a slower migrating protein species is traditionally observed upon electrophoresis through a polyacrylamide gel when an RNA capping enzyme is incubated with GTP [25]. This slower migrating species corresponds to the enzyme with covalently bound GMP. We therefore incubated the enzyme in the presence of GTP or MPA and the polypeptide was analyzed by capillary electrophoresis. […] Aliquots of the RNA samples were then digested with nuclease P1 and alkaline phosphatase and analyzed by polyethyleneimine-cellulose thin layer chromatography (Fig. 3B).
(A) Capillary electrophoresis analysis of the RNA capping reaction. The GTase reactions were performed in the presence of the purified enzyme (1 µM) and GTP (1 mM) or MPA (1 mM), and the reaction products were analyzed by capillary electrophoresis. […] The reaction products were analyzed by thin layer chromatography on a polyethyleneimine-cellulose plate developed with 0.5 M LiCl and 1 M formic acid. […]

[4] = molecular target: T5, human RNA guanylyltransferase (HCE) (Homo sapiens, UniProt O60942); assay: First and second step of the GTase reaction, human enzyme; type: biochemical; conditions: enzyme-GMP formation
T5 construct: made in house

[5] = molecular target: T1, Chlorella virus DNA ligase; assay: Ligation assay: strand joining of nicked DNA duplex (complete reaction)
[6] = molecular target: T1, Chlorella virus DNA ligase; assay: Second step of ligation: AMP transfer to 5'-phosphate DNA (1-nt gapped substrate); type: biochemical; conditions: enzyme pre-incubated with ATP; 1-nt gapped DNA substrate
Excerpt: as §1

[7] = molecular target: T6, yeast GTase enzyme-GMP complex (Saccharomyces cerevisiae, UniProt Q01159); assay: UV-crosslinking of radiolabelled RNA to the enzyme-GMP complex; set-up: species or system S. cerevisiae; conditions: 81 nt 5'-triphosphate radiolabelled RNA (3 µM), read-out: IC50 for inhibition of RNA binding to the enzyme-GMP complex
T6 construct: made in house
Description: UV-crosslinking between the internally ^32P-labeled RNA of 81 nt and the yeast GTase was performed in a crosslink buffer (50 mM Tris pH 7.5, 5 mM DTT, 5 mM MgCl2). The protein (12 µM) was incubated with GTP (1 mM) and different concentrations of MPA for 10 minutes at 30°C. The radiolabeled RNA (3 µM) was added to the reaction mixture and incubated for 5 minutes at 30°C. The reaction mixture was exposed to UV light (254 nm, 20 Joules/cm^2) for 5 min at 30°C using a Stratalinker 2400 UV Crosslinker (Stratagene). The crosslink mixture was denatured (50 mM Tris-HCl, pH 7.0, 5% sucrose, 5% b-mercaptoethanol, 2% SDS) and separated by electrophoresis on a 12% SDS-PAGE. The gel was analyzed by phosphorimaging.
It is tempting to speculate that the opening of the active site of the enzyme that is normally observed following the hydrolysis of GTP to produce the enzyme-GMP covalent intermediate is inhibited by MPA. Following the formation of the GMP adduct, the enzyme must open up to provide access for the incoming mRNA substrate, since this site is blocked off in the closed form of the enzyme. […] In order to validate this hypothesis, cross-linking assays were used to monitor the binding of radiolabelled RNA to the enzyme-GMP complex with or without MPA. […]
Figure 5 Binding of MPA to the enzyme-GMP complex inhibits the interaction with RNA. […] (B) The reaction products were quantified by phosphorimaging.

[8] = molecular target: T2, GTase of S. cerevisiae (Ceg1 protein); assay: Complete RNA guanylyltransferase reaction (both steps), standard GTase assay; type: biochemical
[9] = molecular target: T2, GTase of S. cerevisiae (Ceg1 protein); assay: Second step of GTase reaction: transfer of GMP onto acceptor RNA; type: biochemical; conditions: enzyme pre-incubated with GTP, then acceptor 5'-diphosphate RNA added with MPA
Description: as §2

[10] = molecular target: T7, RNA guanylyltransferase from vaccinia virus (D1R) (Vaccinia virus, UniProt P04298); assay: biochemical
T7 construct: made in house

T1 sequence (O41026 entry or part of it): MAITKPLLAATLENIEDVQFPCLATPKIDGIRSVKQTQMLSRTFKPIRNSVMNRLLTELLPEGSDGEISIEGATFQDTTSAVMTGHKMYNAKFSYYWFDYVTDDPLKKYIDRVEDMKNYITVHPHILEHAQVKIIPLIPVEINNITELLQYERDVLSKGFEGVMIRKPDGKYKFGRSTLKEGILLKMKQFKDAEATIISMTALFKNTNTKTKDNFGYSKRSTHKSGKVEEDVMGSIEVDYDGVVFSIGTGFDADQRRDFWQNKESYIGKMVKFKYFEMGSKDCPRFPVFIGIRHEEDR
T3 sequence (Q84424 whole entry, stated change not applied): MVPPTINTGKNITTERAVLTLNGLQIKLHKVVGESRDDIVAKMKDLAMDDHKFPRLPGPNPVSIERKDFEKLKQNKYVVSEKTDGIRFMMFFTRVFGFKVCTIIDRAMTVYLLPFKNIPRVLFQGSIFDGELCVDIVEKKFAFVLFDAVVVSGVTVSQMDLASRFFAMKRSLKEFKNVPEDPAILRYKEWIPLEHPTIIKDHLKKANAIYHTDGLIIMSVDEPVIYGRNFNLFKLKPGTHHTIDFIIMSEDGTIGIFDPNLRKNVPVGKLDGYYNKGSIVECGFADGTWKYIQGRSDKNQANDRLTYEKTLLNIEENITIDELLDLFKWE
T5 sequence (O60942 whole entry): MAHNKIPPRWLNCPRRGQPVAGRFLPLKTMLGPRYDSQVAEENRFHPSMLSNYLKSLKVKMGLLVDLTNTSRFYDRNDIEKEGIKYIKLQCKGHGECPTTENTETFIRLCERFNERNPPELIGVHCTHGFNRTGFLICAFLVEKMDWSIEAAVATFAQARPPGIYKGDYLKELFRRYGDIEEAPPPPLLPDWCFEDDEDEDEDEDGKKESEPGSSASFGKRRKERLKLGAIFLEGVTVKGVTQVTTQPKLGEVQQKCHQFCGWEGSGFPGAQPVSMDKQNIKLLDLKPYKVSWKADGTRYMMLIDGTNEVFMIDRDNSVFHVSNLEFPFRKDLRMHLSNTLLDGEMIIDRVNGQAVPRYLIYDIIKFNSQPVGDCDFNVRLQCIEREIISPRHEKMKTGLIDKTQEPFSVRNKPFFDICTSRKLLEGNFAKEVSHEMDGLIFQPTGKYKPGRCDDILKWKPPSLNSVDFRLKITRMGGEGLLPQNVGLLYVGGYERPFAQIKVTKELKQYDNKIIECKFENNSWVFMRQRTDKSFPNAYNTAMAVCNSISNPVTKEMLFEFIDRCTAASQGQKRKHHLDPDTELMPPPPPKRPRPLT

**Q.** Which “reduction of cap formation” value (S. cerevisiae cells) does the source give for COc1c(C)c2c(c(O)c1C/C=C(\C)CCC(=O)O)C(=O)OC2 [MPA, mycophenolic acid] here?
**A.** 50%

**Q.** And the IC50 ([1]; enzyme-AMP covalent complex formation)?
**A.** ~3 mM

**Q.** What about the “concentration for first step relative to amount required to inhibit the overall reaction” value ([1]; first step IC50 / overall ligation IC50) of the same compound?
**A.** 4 times

**Q.** And the IC50 [2]?
**A.** 3 mM

**Q.** What about the “concentration for first step relative to amount required to inhibit the overall GTase reaction” value ([2]; first step IC50 / overall (both steps) IC50) of the same compound?
**A.** 8 times

**Q.** What about the IC50 [3] of the same compound?
**A.** ~3 mM

**Q.** And the “use as substrate by the GTase (slower migrating covalent enzyme species)” value (RNA guanylyltransferase; capillary electrophoresis)?
**A.** not a substrate

**Q.** What about the “transfer to an acceptor RNA” value (RNA guanylyltransferase; nuclease P1 + alkaline phosphatase digestion, TLC) of the same compound?
**A.** could not be detected

**Q.** And the IC50 [4]?
**A.** ~3 mM

**Q.** What about the IC50 [5] of the same compound?
**A.** 0.7 mM

**Q.** And the IC50 [6]?
**A.** 0.6 mM

**Q.** What about the IC50 [7] of the same compound?
**A.** 0.41 mM

**Q.** What about the IC50 [8] of the same compound?
**A.** 0.36 mM

**Q.** What about the inhibition at 900 µM ([8]; at 900 µM MPA, both steps, read-out: inhibition of the overall GTase activity) of the same compound?
**A.** 80%

**Q.** And the IC50 [9]?
**A.** 0.64 mM

**Q.** What about the IC50 [10] of the same compound?
**A.** ~3 mM
